From publication PMC6200808 (2018)

What was measured:
[1] = system: NEO1A (RNA, aptamer) GGACUGGGCGAGAAGUUUAGUCC; test: ITC; settings: for Kd: buffer IC (approximates intracellular salt; composition not shown), buffer IC, 25 °C
[2] = system: TSM (Thymidylate Synthase mRNA region) (RNA, mRNA element) CCCCCCCGCCGCGCCAUGCCUGUGGCCGGUCGG; settings: column head extracted as (M), μ lost
[3] = system: 16S (16S rRNA Decoding region) (RNA, rRNA) GGCGUCACACCUUCGGGUGAAGUCGCC; settings: column head extracted as (M), μ lost
[4] = system: TOB3A (RNA, aptamer) GGCACGAGGUUUAGCUACACUCGUGCC; settings: column head extracted as (M), μ lost
[5] = system: NEO4A (RNA, aptamer) CUUUGCGAUGUCCUUUAAUGGUCCGCGAGG; test: ITC; settings: buffer IC (approximates intracellular salt; composition not shown), 25 °C

SMILES	binding ([1]; 20 μM aptamer in cell, tetracycline concentration not stated)	Kd ([1]; N = 5) [µM]	Dissociation Constants [2] [M]	Dissociation Constants [3] [M]	Dissociation Constants [4] [M]	Kd ([1]; N = 8) [µM]	Kd ([5]; N = 3) [µM]	Kd ([1]; N = 3) [µM]	Kd ([5]; N = 2) [µM]
CN[C@@H]1[C@@H](O)[C@@H](O[C@@H]2[C@@H](O)[C@H](O[C@H]3O[C@H]([C@@H](C)O)[C@@H](O)[C@H](O)[C@H]3N)[C@@H](N)C[C@H]2N)OC[C@]1(C)O		26 ± 9.3							
NC[C@@H]1O[C@H](O[C@H]2[C@@H](O)[C@H](O[C@@H]3[C@@H](O)[C@H](N)C[C@H](N)[C@H]3O[C@H]3O[C@H](CN)[C@@H](O)[C@H](O)[C@H]3N)O[C@@H]2CO)[C@H](N)[C@@H](O)[C@@H]1O			8.8e-07 ± 1.1e-07	1.93e-06 ± 5.8e-07	2.2e-06 ± 5e-07	0.29 ± 0.054	0.099 ± 0.036		
NC[C@H]1O[C@H](O[C@H]2[C@H](O)[C@@H](O[C@H]3O[C@H](CO)[C@@H](O)[C@H](N)[C@H]3O)[C@H](N)C[C@@H]2N)[C@H](O)[C@@H](O)[C@@H]1O			1.03e-05 ± 6.65e-06	3.71e-05 ± 4.38e-06	7.38e-05 ± 3.96e-06			43 ± 3.6	10.7 ± 4.2

Other lines, results leading:

binding ([1]; 20 μM aptamer in cell, tetracycline concentration not stated)	Kd ([1]; N = 5) [µM]	Dissociation Constants [2] [M]	Dissociation Constants [3] [M]	Dissociation Constants [4] [M]	Kd ([1]; N = 8) [µM]	Kd ([5]; N = 3) [µM]	Kd ([1]; N = 3) [µM]	Kd ([5]; N = 2) [µM]	SMILES
no									CN(C)[C@@H]1C(=O)C(C(N)=O)=C(O)[C@@]2(O)C(=O)C3=C(O)c4c(O)cccc4[C@@](C)(O)[C@H]3C[C@@H]12
	1.4 ± 0.19	6.29e-06 ± 3.49e-06	5.31e-06 ± 1.85e-06	1.72e-05 ± 1.96e-06					NC[C@@H]1O[C@H](O[C@H]2[C@@H](O)[C@H](O[C@@H]3[C@@H](O)[C@H](N)C[C@H](N)[C@H]3O[C@H]3O[C@H](CO)[C@@H](O)[C@H](O)[C@H]3N)O[C@@H]2CO)[C@H](N)[C@@H](O)[C@@H]1O
		5.75e-06 ± 1.87e-06	1.03e-05 ± 3.87e-06	2.4e-07 ± 1e-07			4.8 ± 0.95		NC[C@H]1O[C@H](O[C@H]2[C@H](O)[C@@H](O[C@H]3O[C@H](CO)[C@@H](O)[C@H](N)[C@H]3O)[C@H](N)C[C@@H]2N)[C@H](N)C[C@@H]1O
	0.75 ± 0.26	6.5e-06 ± 3.2e-06	8.9e-06 ± 3.54e-06	2.43e-06 ± 1.37e-06					NC[C@H]1O[C@H](O[C@H]2[C@H](O)[C@@H](O[C@H]3O[C@H](CO)[C@@H](O)[C@H](N)[C@H]3O)[C@H](N)C[C@@H]2N)[C@H](N)[C@@H](O)[C@@H]1O
